Measured values taken from patent US6642251B1, “Geometrically restricted 2-indolinone derivatives as modulators of protein kinase activity” (Sugen, Inc., priority 1998, dated 2003).
Wherever bio SRC, outcome of primary assay is given: key: DNH = did not hit in primary assay.

The compounds below were run against EGFR (Homo sapiens, UniProt P00533) (assay: Cellular EGFR assay (cell EGFR)). Settings: 50% inhibition of target PTK activity.
Chain of EGFR (P00533 25-1210): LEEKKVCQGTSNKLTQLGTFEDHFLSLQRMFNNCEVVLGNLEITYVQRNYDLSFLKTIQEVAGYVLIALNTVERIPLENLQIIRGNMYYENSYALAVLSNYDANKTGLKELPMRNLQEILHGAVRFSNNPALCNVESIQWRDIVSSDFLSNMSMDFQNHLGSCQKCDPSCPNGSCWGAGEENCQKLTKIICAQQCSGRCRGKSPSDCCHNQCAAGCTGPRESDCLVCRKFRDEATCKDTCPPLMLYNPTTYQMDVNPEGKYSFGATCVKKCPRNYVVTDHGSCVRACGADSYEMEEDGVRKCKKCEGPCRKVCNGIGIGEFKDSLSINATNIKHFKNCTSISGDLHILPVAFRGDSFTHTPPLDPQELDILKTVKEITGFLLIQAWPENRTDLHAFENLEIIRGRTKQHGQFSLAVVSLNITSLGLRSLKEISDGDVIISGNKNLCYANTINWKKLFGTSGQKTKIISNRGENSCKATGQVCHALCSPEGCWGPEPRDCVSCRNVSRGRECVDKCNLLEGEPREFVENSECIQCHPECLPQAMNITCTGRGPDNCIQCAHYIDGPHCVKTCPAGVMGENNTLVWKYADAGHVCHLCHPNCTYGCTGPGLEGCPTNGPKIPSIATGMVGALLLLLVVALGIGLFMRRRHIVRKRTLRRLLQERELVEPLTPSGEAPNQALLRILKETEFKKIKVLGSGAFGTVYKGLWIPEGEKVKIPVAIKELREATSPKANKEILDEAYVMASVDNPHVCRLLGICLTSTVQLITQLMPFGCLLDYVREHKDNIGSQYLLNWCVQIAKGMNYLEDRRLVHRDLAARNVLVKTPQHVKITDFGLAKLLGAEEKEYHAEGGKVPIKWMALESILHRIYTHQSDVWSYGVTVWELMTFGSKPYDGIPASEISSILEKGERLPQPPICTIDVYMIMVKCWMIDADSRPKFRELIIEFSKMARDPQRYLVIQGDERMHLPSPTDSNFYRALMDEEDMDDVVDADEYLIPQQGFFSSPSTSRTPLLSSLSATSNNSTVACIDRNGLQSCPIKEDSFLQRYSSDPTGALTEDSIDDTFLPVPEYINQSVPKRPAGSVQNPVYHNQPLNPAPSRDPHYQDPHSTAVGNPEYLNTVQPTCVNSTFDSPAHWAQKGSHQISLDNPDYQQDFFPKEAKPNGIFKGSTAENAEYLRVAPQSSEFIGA
Type: cell-based
Design: expressed in transfected cells; host or cells: NIH 3T3/C7
Protocol: EGF Receptor kinase activity in cells genetically engineered to express human EGF-R can be measured as described below:
1. NIH 3T3/C7 cell line (Honegger, et al., Cell 51:199-209, 1987) can be use for this assay.
1. Check seeded cells for contamination using an inverted microscope. Dilute test compounds stock (10 mg/ml in DMSO) 1:10 in DMEM medium, then transfer 5 μl to a test well for a test compounds drug dilution of 1:200 and a final DMSO concentration of 1%. Control wells receive DMSO alone. Incubate in 5% CO2 at 37° C. for one hour.
2. Prepare EGF ligand: dilute stock EGF in DMEM so that upon transfer of 10 μl dilute EGF (1:12 dilution), 25 nM final concentration is attained.
3. Prepare fresh 10 ml HNTG* sufficient for 100 μl per well wherein HNTG* comprises: HNTG stock (2.0 ml), milli-Q H2O (7.3 ml), EDTA, 100 mM, pH 7.0 (0.5 ml), Na3VO4 0.5 M (0.1 ml) and Na4(P2O7), 0.2 M (0.1 ml).
5. After two hours incubation with drug, add prepared EGF ligand to cells, 10 μl per well, to yield a final concentration of 25 nM. Control wells receive DMEM alone. Incubate, shaking, at room temperature, for 5 minutes.
6. Remove test compound, EGF, and DMEM. Wash cells twice with PBS. Transfer HNTG* to cells, 100 μl per well. Place on ice for 5 minutes. Meanwhile, remove blocking buffer from other ELISA plate and wash with TBST as described above.
7. With a pipette tip securely fitted to a micropipettor, scrape cells from plate and homogenize cell material by repeatedly aspirating and dispensing the HNTG* lysis buffer. Transfer lysate to a coated, blocked, and washed ELISA plate. Incubate shaking at room temperature for one hour.
8. Remove lysate and wash 4 times with TBST. Transfer freshly diluted anti-Ptyr antibody to ELISA plate at 100 μl per well. […]
12. The maximal phosphotyrosine signal is determined by subtracting the value of the negative controls from the positive controls. The percent inhibition of phosphotyrosine content for extract-containing wells is then calculated, after subtraction of the negative controls.
`O=C1Nc2ccccc2/C1=C1\CCc2ccccc21` [Compound 10, 3-Indan-1-ylidene-1,3-dihydroindol-2-one] was tested, and the IC50 was > 100 µM. For `COc1ccc2c(c1)C(CC(=O)O)C/C2=C1/C(=O)Nc2ccccc21` (stereo not shown) [Compound 11, [6-Methoxy-3-(2-oxo-1,2-dihydroindol-3-ylidene)-indan-1-yl]acetic Acid], the IC50 was > 100 µM. With `COc1ccc2c(c1)C(CC(=O)[O-])CC2=C1C(=O)Nc2ccccc21.[Na+]` (stereo not shown) [Compound 13, [6-Methoxy-3-(2-oxo-1,2-dihydroindol-3-ylidene)-indan-1-yl]acetic Acid Sodium Salt] the IC50 was > 100 µM.

The compounds below were run against T1, src protein kinase (Gallus gallus, UniProt P00523) (assay: Biochemical src assay (bio SRC)). Settings: 50% inhibition of target PTK activity.
T1 construct: made in house; host or cells: Schizosaccharomyces pombe strain SP200
Protocol: This assay is used to determine src protein kinase activity measuring phosphorylation of a biotinylated peptide as the readout.
a. Yeast transformed with src (Sugen, Inc., Redwood City, Calif.).
1. Coat ELISA plate with 0.5 μg/well anti-src mab in 100 μl of pH 9.6 sodium carbonate buffer; hold at 4° C. overnight.
2. Wash wells once with PBS.
3. Block plate with 0.15 ml 5% milk in PBS for 30 min. at room temperature.
4. Wash plate 5× with PBS.
5. Add 10 μg/well of src transformed yeast lysates diluted in Lysis Buffer (0.1 ml total volume per well). (Amount of lysate may vary between batches.) Shake plate for 20 minutes at room temperature.
1. 4G10 plate: coat 0.5 μg/well 4G10 in 100 μl PBS overnight at 4° C. and block with 150 μl of 5% milk in PBS for 30 minutes at room temperature.
1. Remove unbound proteins.from plates and wash plates 5× with PBS.
2. Add 0.08 ml Kinase Reaction Mixture per well (containing 10 μl of 10×-Kinase Buffer and 10 μM (final concentration) biotin-EEEYEEYEEEYEEEYEEEY per well diluted in water.
3. Add 10 μl of compound diluted in water containing 10% DMSO and pre-incubate for 15 minutes at room temperature.
4. Start kinase reaction by adding 10 μl/well of 0.05 mM ATP in water (5 μM ATP final).
5. Shake ELISA plate for 15 min. at room temperature.
6. Stop kinase reaction by adding 10 μl of 0.5 M EDTA per well.
7. Transfer 90 μl supernatant to a blocked 4G10 coated ELISA plate.
8. Incubate for 30 min. while shaking at room temperature.
9. Wash plate 5× with TBST.
10. Incubate with Vectastain ELITE ABC reagent (100 μl/well) for 30 min. at room temperature.
11. Wash the wells 5× with TBST.
12. Develop with Turbo TMB.
With `CN(C)c1ccc2c(c1)CC/C2=C1/C(=O)Nc2ccccc21` [Compound 5, 3-(5-Dimethylaminoindan-1-ylidene)-1,3-dihydroindol-2-one] the IC50 was > 100 µM. With `O=C1Nc2ccccc2/C1=C1\CCc2cc(Cl)ccc21` [Compound 7, 3-(5-Chloroindan-1-ylidene)-1,3-dihydroindol-2-one] the IC50 was > 100 µM. For `O=C1Nc2ccccc2/C1=C1\CCc2ccccc21` [Compound 10, 3-Indan-1-ylidene-1,3-dihydroindol-2-one], the IC50 was > 100 µM. With `COc1cc2c(cc1OC)/C(=C1\C(=O)Nc3ccccc31)CC2` [Compound 12, 3-(5,6-Dimethoxyindan-1-ylidene)-1,3-dihydroindol-2-one] the IC50 was > 25 µM.

Same assay, conditions: primary assay
`CC1C/C(=C2/C(=O)Nc3ccccc32)c2ccccc21` (stereo not shown) [Compound 1, 3-(3-methylindan-1-ylidene)-1,3-dihydroindol-2-one] was tested, and the “bio SRC, outcome of primary assay” value was “DNH”. In the case of `Cc1cccc2c1CC/C2=C1/C(=O)Nc2ccccc21` [Compound 2, 3-(4-Methylindan-1-ylidene)-1,3-dihydroindol-2-one], the “bio SRC, outcome of primary assay” value is reported as “DNH”. For `COc1ccc2c(c1)CC/C2=C1/C(=O)Nc2ccccc21` [Compound 3, 3-(5-Methoxyindan-1-ylidene)-1,3-dihydroindol-2-one], the “bio SRC, outcome of primary assay” value was “DNH”.
